Data as given in patent publication US20020019395A1, “Indalone and benzimidazolone inhibitors of factor Xa” (priority 2000, published 2002).

Legend:
Type in all cases: biochemical
TRYPSIN = biological target: T1, TRYPSIN (Bos taurus, UniProt P00760); experiment: trypsin protease inhibition assay
T1 construct: gene PRSS1
T1 sequence (P00760 24-246): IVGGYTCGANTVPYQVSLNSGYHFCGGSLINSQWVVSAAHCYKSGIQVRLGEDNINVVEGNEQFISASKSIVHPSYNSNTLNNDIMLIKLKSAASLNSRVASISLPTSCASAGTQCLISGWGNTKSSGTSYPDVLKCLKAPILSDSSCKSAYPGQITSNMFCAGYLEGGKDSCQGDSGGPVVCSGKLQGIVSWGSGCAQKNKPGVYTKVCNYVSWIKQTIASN

TPA = TPA (Homo sapiens, UniProt P00750); experiment: TPA protease inhibition assay
Sequence of TPA (P00750 36-562, species assumed): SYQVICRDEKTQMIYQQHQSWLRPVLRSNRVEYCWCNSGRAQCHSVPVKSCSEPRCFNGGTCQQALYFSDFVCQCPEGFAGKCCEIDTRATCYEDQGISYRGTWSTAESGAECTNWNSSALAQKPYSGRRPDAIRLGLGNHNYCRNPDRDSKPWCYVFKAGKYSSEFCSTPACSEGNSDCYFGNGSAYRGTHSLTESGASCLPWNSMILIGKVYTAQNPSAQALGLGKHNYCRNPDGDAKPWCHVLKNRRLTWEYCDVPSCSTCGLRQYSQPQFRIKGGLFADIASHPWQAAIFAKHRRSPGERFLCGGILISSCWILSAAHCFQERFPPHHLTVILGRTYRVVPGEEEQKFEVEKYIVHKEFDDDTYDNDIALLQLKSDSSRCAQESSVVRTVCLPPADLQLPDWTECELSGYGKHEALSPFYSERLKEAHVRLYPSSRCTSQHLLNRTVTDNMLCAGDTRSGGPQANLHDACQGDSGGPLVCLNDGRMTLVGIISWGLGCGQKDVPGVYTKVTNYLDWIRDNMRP

prothrombinase complex = prothrombinase complex (Homo sapiens, UniProt P00742); experiment: prothrombinase inhibition assay (IIASE), plasma free system; conditions: factor Xa 0.5 nM, factor Va 2 nM, phospholipid, Chromozym TH
Sequence of prothrombinase complex (P00742 235-488 limits assumed): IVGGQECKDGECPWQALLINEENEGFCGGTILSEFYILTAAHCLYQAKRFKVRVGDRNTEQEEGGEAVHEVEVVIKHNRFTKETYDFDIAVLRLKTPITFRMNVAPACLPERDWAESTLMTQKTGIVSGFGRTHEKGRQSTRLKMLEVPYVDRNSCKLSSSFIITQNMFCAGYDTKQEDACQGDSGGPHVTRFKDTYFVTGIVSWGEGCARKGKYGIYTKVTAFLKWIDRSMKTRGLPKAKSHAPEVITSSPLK
Sequence of prothrombinase complex (P00742 41-179 partner limits assumed): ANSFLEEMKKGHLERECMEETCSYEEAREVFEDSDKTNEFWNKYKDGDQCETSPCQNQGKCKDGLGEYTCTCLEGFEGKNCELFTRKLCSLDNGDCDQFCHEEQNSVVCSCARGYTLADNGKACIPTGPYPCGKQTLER
Sequence of prothrombinase complex (P12259 29-737 partner limits assumed): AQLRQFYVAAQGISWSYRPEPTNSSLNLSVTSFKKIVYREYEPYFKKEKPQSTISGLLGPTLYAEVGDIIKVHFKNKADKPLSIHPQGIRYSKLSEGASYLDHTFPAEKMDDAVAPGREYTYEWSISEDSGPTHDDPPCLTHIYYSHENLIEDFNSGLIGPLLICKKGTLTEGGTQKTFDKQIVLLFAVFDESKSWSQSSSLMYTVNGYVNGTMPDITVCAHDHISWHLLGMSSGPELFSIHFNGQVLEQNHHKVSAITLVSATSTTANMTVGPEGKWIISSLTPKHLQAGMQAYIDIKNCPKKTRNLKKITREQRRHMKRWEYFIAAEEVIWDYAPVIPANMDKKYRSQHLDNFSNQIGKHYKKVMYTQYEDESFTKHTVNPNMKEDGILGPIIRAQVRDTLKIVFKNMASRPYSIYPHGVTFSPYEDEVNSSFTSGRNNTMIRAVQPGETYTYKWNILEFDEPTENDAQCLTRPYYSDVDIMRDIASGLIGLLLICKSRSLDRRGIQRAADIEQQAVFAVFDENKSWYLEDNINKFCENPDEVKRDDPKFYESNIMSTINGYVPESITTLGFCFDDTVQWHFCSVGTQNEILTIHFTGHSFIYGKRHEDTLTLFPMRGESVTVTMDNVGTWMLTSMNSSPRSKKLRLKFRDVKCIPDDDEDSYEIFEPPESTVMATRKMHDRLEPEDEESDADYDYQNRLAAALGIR
Sequence of prothrombinase complex (P12259 1574-2224 partner limits assumed): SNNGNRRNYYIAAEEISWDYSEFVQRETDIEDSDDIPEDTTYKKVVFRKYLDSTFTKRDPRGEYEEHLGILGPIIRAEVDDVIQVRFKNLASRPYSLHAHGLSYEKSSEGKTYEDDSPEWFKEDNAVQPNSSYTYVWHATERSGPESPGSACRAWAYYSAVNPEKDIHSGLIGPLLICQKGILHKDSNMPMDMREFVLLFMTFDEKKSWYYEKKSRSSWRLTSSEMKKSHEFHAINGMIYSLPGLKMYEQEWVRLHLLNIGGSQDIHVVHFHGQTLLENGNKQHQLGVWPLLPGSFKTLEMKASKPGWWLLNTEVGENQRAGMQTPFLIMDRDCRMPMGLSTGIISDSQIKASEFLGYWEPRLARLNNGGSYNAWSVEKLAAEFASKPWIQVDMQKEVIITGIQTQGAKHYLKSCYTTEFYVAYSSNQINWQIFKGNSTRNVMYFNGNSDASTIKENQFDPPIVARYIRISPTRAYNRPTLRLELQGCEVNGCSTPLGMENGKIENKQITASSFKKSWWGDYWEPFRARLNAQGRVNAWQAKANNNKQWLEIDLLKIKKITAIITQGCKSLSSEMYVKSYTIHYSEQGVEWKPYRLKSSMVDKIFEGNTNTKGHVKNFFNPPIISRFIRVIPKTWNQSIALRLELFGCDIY
Procedure: (§1) The compounds of the present invention are dissolved in buffer to give solutions containing concentrations such that assay concentrations range from about 0 to about 100 μM. In the assays for thrombin, prothrombinase and factor Xa, a synthetic chromogenic substrate is added to a solution containing test compound and the enzyme of interest and the residual catalytic activity of that enzyme is determined spectrophotometrically. The IC50 of a compound is determined from the substrate turnover. The IC50 is the concentration of test compound giving about 50% inhibition of the substrate turnover.
The prothrombinase inhibition assay was performed in a plasma free system with modifications to the method described by Sinha, U. et al., Thromb. Res., 75, 427-436 (1994). Specifically, the activity of the prothrombinase complex was determined by measuring the time course of thrombin generation using the p-nitroanilide substrate Chromozym TH. The assay consists of preincubation (5 minutes) of selected compounds to be tested as inhibitors with the complex formed from factor Xa (0.5 nM), factor Va (2 nM), phosphatidyl serine:phosphatidyl choline (25:75, 20 μM) in 20 mM Tris.HCl buffer, pH 7.5, containing 0.15 M NaCl, 5 mM CaCl2 and 0.1% bovine serum albumin. Aliquots from the complex-inhibitor mixture were added to prothrombin (1 nM) and Chromozym TH (0.1 mM). The rate of substrate cleavage was monitored at 405 nm for two minutes. Eight different concentrations of inhibitor were assayed in duplicate. A standard curve of thrombin generation by an equivalent amount of untreated complex was used for determination of percent inhibition.

KALLIKREIN = experiment: kallikrein protease inhibition assay
PLASMIN = PLASMIN (Homo sapiens, UniProt P00747); experiment: plasmin protease inhibition assay
Sequence of PLASMIN (P00747 581-810 limits assumed, species assumed): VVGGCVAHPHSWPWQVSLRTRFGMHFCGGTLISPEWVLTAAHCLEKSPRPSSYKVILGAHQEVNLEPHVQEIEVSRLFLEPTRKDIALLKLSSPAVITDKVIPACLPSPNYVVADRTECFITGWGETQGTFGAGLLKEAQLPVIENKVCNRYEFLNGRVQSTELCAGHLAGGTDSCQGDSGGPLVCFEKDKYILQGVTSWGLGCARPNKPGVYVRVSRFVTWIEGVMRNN
Sequence of PLASMIN (P00747 97-580 partner limits assumed, species assumed): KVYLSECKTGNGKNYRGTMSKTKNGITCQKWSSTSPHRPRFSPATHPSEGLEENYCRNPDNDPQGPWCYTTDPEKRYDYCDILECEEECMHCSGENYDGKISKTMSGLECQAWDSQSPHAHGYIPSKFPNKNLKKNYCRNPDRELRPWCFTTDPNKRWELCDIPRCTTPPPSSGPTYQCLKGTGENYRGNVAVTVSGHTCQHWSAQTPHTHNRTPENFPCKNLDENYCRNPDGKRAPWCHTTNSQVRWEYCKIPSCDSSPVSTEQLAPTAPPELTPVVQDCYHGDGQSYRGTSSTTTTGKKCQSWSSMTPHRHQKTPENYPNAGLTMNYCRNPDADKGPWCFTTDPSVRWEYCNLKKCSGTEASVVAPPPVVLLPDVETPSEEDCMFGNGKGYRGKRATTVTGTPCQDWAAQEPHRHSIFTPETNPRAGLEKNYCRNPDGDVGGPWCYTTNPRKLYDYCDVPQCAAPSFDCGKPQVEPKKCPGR

thrombin = thrombin (Homo sapiens, UniProt P00734); experiment: thrombin amidolytic assay (IIA); conditions: substrate Chromozym TH, pH 7.5, room temperature
Procedure: as §1
(§2) The factor Xa and thrombin assays were performed at room temperature, in 0.02 M Tris.HCl buffer, pH 7.5, containing 0.15 M NaCl. The rates of hydrolysis of the para-nitroanilide substrate S-2765 (Chromogenix) for factor Xa, and the substrate Chromozym TH (Boehringer Mannheim) for thrombin following preincubation of the enzyme with inhibitor for 5 minutes at room temperature, and were determined using the Softmax 96-well plate reader (Molecular Devices), monitored at 405 nm to measure the time dependent appearance of p-nitroaniline.

APC = APC (Homo sapiens, UniProt P04070); experiment: APC protease inhibition assay
Sequence of APC (P04070 212-450 limits assumed): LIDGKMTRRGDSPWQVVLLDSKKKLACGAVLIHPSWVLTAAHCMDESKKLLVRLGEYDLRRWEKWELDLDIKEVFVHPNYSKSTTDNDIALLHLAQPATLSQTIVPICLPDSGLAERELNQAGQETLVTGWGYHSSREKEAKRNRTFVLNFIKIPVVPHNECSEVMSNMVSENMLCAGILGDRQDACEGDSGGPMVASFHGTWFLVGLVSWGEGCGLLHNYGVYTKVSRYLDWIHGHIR
Sequence of APC (P04070 43-197 partner limits assumed): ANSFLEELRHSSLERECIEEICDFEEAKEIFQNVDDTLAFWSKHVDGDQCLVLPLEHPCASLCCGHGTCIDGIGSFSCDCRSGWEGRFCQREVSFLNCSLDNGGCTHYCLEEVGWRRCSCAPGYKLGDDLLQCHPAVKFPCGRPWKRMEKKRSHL

factor Xa = factor Xa (Homo sapiens, UniProt P00742); experiment: factor Xa amidolytic assay (XA); conditions: substrate S-2765, pH 7.5, room temperature
Sequence of factor Xa (P00742 235-488 limits assumed): as the sequence (P00742 235-488 limits assumed) above
Sequence of factor Xa (P00742 41-179 partner limits assumed): as the sequence (P00742 41-179 partner limits assumed) above
Procedure: as §1, §2

Structure (SMILES) | IC50 (TRYPSIN) | IC50 (TPA) | IC50 (prothrombinase complex) | IC50 (KALLIKREIN) | IC50 (PLASMIN) | IC50 (thrombin) | IC50 (APC) | IC50 (factor Xa)
CC(=N)N1CCC(Oc2ccc3c(c2)n(Cc2ccc4ccc(C(=N)N)cc4c2)c(=O)n3CC(=O)OCC(C)C)CC1 [Example 12] | 81.6 nM | 54000 nM | 103 nM | 1340 nM | 4220 nM | 264000 nM | 8120 nM | 10.8 nM
CCn1c(Cn2c(=O)[nH]c3ccc(OC4CCN(C(C)=N)CC4)cc32)cc2ccc(C(=N)N)cc21 [Example 17] | 409 nM | – | 526 nM | – | – | 267 nM | – | 14000 nM
CC(=N)N1CCC(Oc2ccc3c(c2)n(Cc2ccc4ccc(C(=N)N)cc4c2)c(=O)n3C)CC1 [Example 6] | 55.7 nM | 36100 nM | 422 nM | 592 nM | 3670 nM | 32100 nM | 7650 nM | 27 nM
CC(=N)N1CCC(Oc2ccc3[nH]c(=O)n(Cc4ccc5ccc(C(=N)N)cc5c4)c3c2)CC1 [Example 4] | 133 nM | 101000 nM | 22.2 nM | 508 nM | 8940 nM | 286000 nM | 15900 nM | 20.4 nM
N=C(N)c1ccc2ccc(Cn3c(=O)n(CC(=O)O)c4ccc(OC5CCN(C(=N)N)CC5)cc43)cc2c1 [Example 15] | 163 nM | 169000 nM | 4220 nM | 9220 nM | 17000 nM | – | 49800 nM | 67.1 nM
N=C(N)c1ccc(Cn2c(=O)[nH]c3ccc(OC4CCN(C(=N)N)CC4)cc32)cc1 [Example 1] | 21800 nM | – | – | 9540 nM | – | 333000 nM | 99200 nM | 9220 nM
CCn1c(Cn2c(=O)[nH]c3ccc(OC4CCN(C(=N)N)CC4)cc32)cc2ccc(C(=N)N)cc21 [Example 18] | 509 nM | – | 470 nM | – | – | 302 nM | – | 1770 nM
Cn1c(=O)n(Cc2ccc3ccc(C(=N)N)cc3c2)c2cc(OC3CCN(C(=N)N)CC3)ccc21 [Example 7] | 32.2 nM | 31800 nM | 401 nM | 615 nM | 2980 nM | 24500 nM | 6420 nM | 32 nM
CC(=N)N1CCC(Oc2ccc3c(c2)n(Cc2ccc4ccc(C(=N)N)cc4c2)c(=O)n3C(C)C)CC1 [Example 8] | 349 nM | 77800 nM | 425 nM | 349 nM | 3500 nM | 30200 nM | 2480 nM | 28.6 nM
CC(C)n1c(=O)n(Cc2ccc3ccc(C(=N)N)cc3c2)c2cc(OC3CCN(C(=N)N)CC3)ccc21 [Example 9] | 392 nM | 92800 nM | 827 nM | 392 nM | 2230 nM | 14900 nM | 1850 nM | 49.8 nM
CC(C)COC(=O)Cn1c(=O)n(Cc2ccc3ccc(C(=N)N)cc3c2)c2cc(OC3CCN(C(=N)N)CC3)ccc21 [Example 13] | 44.1 nM | 42800 nM | 250 nM | 1250 nM | 2710 nM | 59900 nM | 6510 nM | 17.8 nM
CC(=N)N1CCC(Oc2ccc3c(c2)n(Cc2ccc4ccc(C(=N)N)cc4c2)c(=O)n3CC(=O)O)CC1 [Example 14] | 192 nM | 88100 nM | 481 nM | 2950 nM | 6040 nM | – | 19300 nM | 8.15 nM
